Measurements published in PubChem BioAssay AID192 (DTP/NCI, 2004).
Values joined by “and” are separate entries in the source; they are usually repeats but may differ in a detail not shown here. Identical values can stand only once. Inconclusive results and toxic doses are left out.

System: BDF1 mice, B16 melanoma ip, median survival T/C
Assay: NCI In Vivo Anticancer Drug Screen. Data for tumor model B16 Melanoma (intraperitoneal) in B6D2F1 (BDF1) mice
Conditions: endpoint: median survival time, higher = longer survival
Summary of the method: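 Antitumor activity is assessed in mice bearing a transplanted tumor, with survival or tumor size compared against vehicle-dosed controls and expressed as T/C.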

[1] = dose: 25.0 mg/kg/injection, schedule: Q01DX009 (ip), vehicle: Klucel (hydroxypropylcellulose) (HPC)
[2] = dose: 50.0 mg/kg/injection, schedule: Q01DX009 (ip), vehicle: saline with Tween-80
[3] = dose: 100.0 mg/kg/injection, schedule: Q01DX009 (ip), vehicle: saline with Tween-80
[4] = dose: 200.0 mg/kg/injection, schedule: Q01DX009 (ip), vehicle: saline with Tween-80
[5] = dose: 400.0 mg/kg/injection, schedule: Q01DX009 (ip), vehicle: saline with Tween-80
[6] = dose: 0.05 mg/kg/injection, schedule: Q01DX009 (ip), vehicle: saline
[7] = dose: 0.1 mg/kg/injection, schedule: Q01DX009 (ip), vehicle: saline
[8] = dose: 0.2 mg/kg/injection, schedule: Q01DX009 (ip), vehicle: saline
[9] = dose: 50.0 mg/kg/injection, schedule: Q01DX009 (ip), vehicle: Klucel (hydroxypropylcellulose) (HPC)
[10] = dose: 100.0 mg/kg/injection, schedule: Q01DX009 (ip), vehicle: Klucel (hydroxypropylcellulose) (HPC)
[11] = dose: 200.0 mg/kg/injection, schedule: Q01DX009 (ip), vehicle: Klucel (hydroxypropylcellulose) (HPC)
[12] = dose: 12.5 mg/kg/injection, schedule: Q01DX009 (ip), vehicle: saline with Tween-80
[13] = dose: 25.0 mg/kg/injection, schedule: Q01DX009 (ip), vehicle: saline with Tween-80
[14] = dose: 6.25 mg/kg/injection, schedule: Q01DX009 (ip), vehicle: saline with Tween-80

`C/C(=C\c1ccccc1Cl)[N+](=O)[O-]` was tested, and the T/C (dose: 37.5 mg/kg/injection, schedule: Q01DX009 (ip), vehicle: Klucel (hydroxypropylcellulose) (HPC)) was 96 % of control and the T/C (dose: 75.0 mg/kg/injection, schedule: Q01DX009 (ip), vehicle: Klucel (hydroxypropylcellulose) (HPC)) was 96 % of control.

With `COc1cc2c(c(OC)c1OC)-c1ccc(OC)c(=O)cc1[C@@H](NC(C)=O)CC2` the T/C (dose: 0.12 mg/kg/injection, schedule: Q01DX009 (ip), vehicle: saline) was 123 % of control, the T/C (dose: 0.13 mg/kg/injection, schedule: Q01DX009 (ip), vehicle: saline) was 120 % of control and the T/C (dose: 0.25 mg/kg/injection, schedule: Q01DX009 (ip), vehicle: water) was 179 % of control. The T/C (dose: 0.4 mg/kg/injection, schedule: Q01DX009 (ip), vehicle: saline) was 152 % of control, the T/C (dose: 0.5 mg/kg/injection, schedule: Q01DX009 (ip), vehicle: saline) was 113 % of control and the T/C (dose: 0.5 mg/kg/injection, schedule: Q01DX009 (ip), vehicle: water) was 150 % of control and 154 % of control. For the same molecule, the T/C (dose: 1.0 mg/kg/injection, schedule: Q01DX009 (ip), vehicle: water) was 166 % of control, the T/C (dose: 63.0 micrograms/kg/injection, schedule: Q01DX009 (ip), vehicle: saline) was 121 % of control and the T/C (dose: 250.0 micrograms/kg/injection, schedule: Q01DX009 (ip), vehicle: saline) was 150 % of control. The T/C (dose: 500.0 micrograms/kg/injection, schedule: Q01DX009 (ip), vehicle: saline) was 151 % of control and the T/C (dose: 1000.0 micrograms/kg/injection, schedule: Q01DX009 (ip), vehicle: saline) was 155 % of control.

For `S=c1[nH]c2ccccc2[nH]1`, the T/C (dose: 1.56 mg/kg/injection, schedule: Q01DX009 (ip), vehicle: Klucel (hydroxypropylcellulose) (HPC)) was 91 % of control, the T/C (dose: 3.12 mg/kg/injection, schedule: Q01DX009 (ip), vehicle: Klucel (hydroxypropylcellulose) (HPC)) was 90 % of control and the T/C (dose: 6.25 mg/kg/injection, schedule: Q01DX009 (ip), vehicle: Klucel (hydroxypropylcellulose) (HPC)) was 95 % of control. The T/C (dose: 12.5 mg/kg/injection, schedule: Q01DX009 (ip), vehicle: Klucel (hydroxypropylcellulose) (HPC)) was 86 % of control and the T/C [1] was 100 % of control.

For `CC(=Nc1ccccc1)C1=C(O)C(CC(C)C)NC1=O` (stereo unspecified), the T/C [2] was 107 % of control, the T/C [3] was 103 % of control and the T/C [4] was 96 % of control. The T/C [5] was 88 % of control.

For `CC(C)NCC(O)COc1cccc2ccccc12` (stereo unspecified), the T/C (dose: 4.0 mg/kg/injection, schedule: Q01DX009 (ip), vehicle: Klucel (hydroxypropylcellulose) (HPC)) was 99 % of control and 112 % of control, the T/C (dose: 8.0 mg/kg/injection, schedule: Q01DX009 (ip), vehicle: Klucel (hydroxypropylcellulose) (HPC)) was 101 % of control and the T/C (dose: 16.0 mg/kg/injection, schedule: Q01DX009 (ip), vehicle: Klucel (hydroxypropylcellulose) (HPC)) was 98 % of control and 108 % of control. The T/C (dose: 32.0 mg/kg/injection, schedule: Q01DX009 (ip), vehicle: Klucel (hydroxypropylcellulose) (HPC)) was 91 % of control and 95 % of control and the T/C (dose: 64.0 mg/kg/injection, schedule: Q01DX009 (ip), vehicle: Klucel (hydroxypropylcellulose) (HPC)) was 97 % of control and 101 % of control.

`CSc1ncnc2c1ncn2C1OC(CO)C(O)C1O` (stereo unspecified) was tested, and the T/C (dose: 2.0 mg/kg/injection, schedule: Q01DX009 (ip), vehicle: saline sonified) was 95 % of control, the T/C (dose: 4.0 mg/kg/injection, schedule: Q01DX009 (ip), vehicle: saline sonified) was 88 % of control and the T/C (dose: 7.5 mg/kg/injection, schedule: Q01DX009 (ip), vehicle: saline with Tween-80) was 100 % of control. For the same molecule, the T/C (dose: 8.0 mg/kg/injection, schedule: Q01DX009 (ip), vehicle: saline sonified) was 86 % of control, the T/C (dose: 15.0 mg/kg/injection, schedule: Q01DX009 (ip), vehicle: saline with Tween-80) was 97 % of control and the T/C (dose: 16.0 mg/kg/injection, schedule: Q01DX009 (ip), vehicle: saline sonified) was 95 % of control.

For `O=C(CC(=O)CC(O)(C(F)(F)F)C(F)(F)F)CC(O)(C(F)(F)F)C(F)(F)F`, the T/C [6] was 93 % of control, the T/C [7] was 95 % of control and the T/C [8] was 95 % of control. The T/C (dose: 0.63 mg/kg/injection, schedule: Q04DX003 (ip), vehicle: saline) was 116 % of control, the T/C (dose: 1.25 mg/kg/injection, schedule: Q04DX003 (ip), vehicle: saline) was 111 % of control and the T/C (dose: 2.5 mg/kg/injection, schedule: Q04DX003 (ip), vehicle: saline) was 105 % of control. For the same molecule, the T/C (dose: 125.0 micrograms/kg/injection, schedule: Q01DX009 (ip), vehicle: saline with Tween-80) was 97 % of control.

`CNC(=O)Nc1ccccc1C(=O)NN` was tested, and the T/C [1] was 106 % of control, the T/C [9] was 100 % of control and the T/C [10] was 100 % of control. For the same molecule, the T/C [11] was 97 % of control.

With `CCN(CC)CCSC(=S)N1c2ccccc2Sc2ccccc21` the T/C (dose: 1.09 mg/kg/injection, schedule: Q01DX009 (ip), vehicle: Klucel (hydroxypropylcellulose) (HPC)) was 109 % of control, the T/C (dose: 2.18 mg/kg/injection, schedule: Q01DX009 (ip), vehicle: Klucel (hydroxypropylcellulose) (HPC)) was 105 % of control and the T/C (dose: 4.37 mg/kg/injection, schedule: Q01DX009 (ip), vehicle: Klucel (hydroxypropylcellulose) (HPC)) was 107 % of control. For the same molecule, the T/C (dose: 8.75 mg/kg/injection, schedule: Q01DX009 (ip), vehicle: Klucel (hydroxypropylcellulose) (HPC)) was 111 % of control and the T/C (dose: 17.5 mg/kg/injection, schedule: Q01DX009 (ip), vehicle: Klucel (hydroxypropylcellulose) (HPC)) was 100 % of control.

With `[CH3][Sn]([CH3])([CH3])[O]C(=O)CCl` the T/C (dose: 0.02 mg/kg/injection, schedule: Q01DX009 (ip), vehicle: saline) was 104 % of control, the T/C [6] was 107 % of control and the T/C [7] was 109 % of control. For the same molecule, the T/C (dose: 0.19 mg/kg/injection, schedule: Q01DX009 (ip), vehicle: saline) was 104 % of control, the T/C [8] was 93 % of control and the T/C (dose: 0.75 mg/kg/injection, schedule: Q01DX009 (ip), vehicle: saline) was 104 % of control.

In the case of `CC1=C(/C=C/C(C)=C/C=C/C(C)=C/CO)C(C)(C)CCC1`, the T/C (dose: 4.0 mg/kg/injection, schedule: Q01DX009 (ip), vehicle: saline with Tween-80) is reported as 90 % of control and 100 % of control, the T/C (dose: 8.0 mg/kg/injection, schedule: Q01DX009 (ip), vehicle: saline with Tween-80) is reported as 99 % of control and 101 % of control and the T/C (dose: 16.0 mg/kg/injection, schedule: Q01DX009 (ip), vehicle: saline with Tween-80) is reported as 97 % of control and 103 % of control. For the same molecule, the T/C (dose: 32.0 mg/kg/injection, schedule: Q01DX009 (ip), vehicle: saline with Tween-80) was 90 % of control and 105 % of control.

For `On1cnc(=S)c2[nH]cnc21`, the T/C (dose: 100.0 mg/kg/injection, schedule: Q01DX009 (ip), vehicle: saline sonified) was 106 % of control, the T/C (dose: 200.0 mg/kg/injection, schedule: Q01DX009 (ip), vehicle: saline sonified) was 104 % of control and the T/C (dose: 400.0 mg/kg/injection, schedule: Q01DX009 (ip), vehicle: saline sonified) was 90 % of control.

With `C=CCNCC(O)c1ccccc1` (stereo unspecified) the T/C [1] was 103 % of control, the T/C [9] was 106 % of control and the T/C [10] was 109 % of control.

With `S=C(Nc1ccccn1)c1ccccn1` the T/C [12] was 92 % of control, the T/C [13] was 112 % of control and the T/C [2] was 94 % of control. The T/C [3] was 93 % of control.

`CCCC1(C)COB(c2ccc(C)cc2)OC1` was tested, and the T/C [1] was 93 % of control, the T/C [9] was 90 % of control and the T/C [10] was 97 % of control. For the same molecule, the T/C [11] was 86 % of control and the T/C (dose: 400.0 mg/kg/injection, schedule: Q01DX009 (ip), vehicle: Klucel (hydroxypropylcellulose) (HPC)) was 90 % of control.

For `CC/C(=C(\c1ccccc1)c1ccc(OCCN(C)C)cc1)c1ccccc1`, the T/C (dose: 25.0 mg/kg/injection, schedule: Q01DX009 (ip), vehicle: suspension in saline) was 97 % of control, the T/C (dose: 50.0 mg/kg/injection, schedule: Q01DX009 (ip), vehicle: suspension in saline) was 93 % of control and the T/C (dose: 100.0 mg/kg/injection, schedule: Q01DX009 (ip), vehicle: suspension in saline) was 91 % of control. The T/C (dose: 200.0 mg/kg/injection, schedule: Q01DX009 (ip), vehicle: suspension in saline) was 86 % of control.

For `Cc1cc(Cl)ccc1NS(=O)(=O)c1cccc([N+](=O)[O-])c1`, the T/C [3] was 116 % of control, the T/C [4] was 121 % of control and the T/C [5] was 107 % of control.

In the case of `CC(=O)Nc1ccc([I+]c2ccc([N+](=O)[O-])cc2)cc1`, the T/C [1] is reported as 100 % of control, the T/C [9] is reported as 104 % of control and the T/C [2] is reported as 87 % of control. For the same molecule, the T/C [10] was 90 % of control, the T/C [3] was 98 % of control and the T/C [4] was 107 % of control.

`CC(C)CC(NC(=O)OC(C)(C)C)C(=O)ON1C(=O)CCC1=O` (stereo unspecified) was tested, and the T/C [14] was 93 % of control, the T/C [12] was 93 % of control and the T/C [13] was 96 % of control. For the same molecule, the T/C [2] was 90 % of control and 92 % of control.

With `CCOC(=O)C1=C(C)O/C(=C/c2cccc(Cl)c2)C1=O` the T/C [14] was 110 % of control, the T/C [12] was 113 % of control and the T/C [13] was 113 % of control. For the same molecule, the T/C [2] was 86 % of control and 107 % of control and the T/C [3] was 97 % of control.
